Measurements reported in patent US11679106B2, “Bromodomain inhibitor” (CELGENE QUANTICEL RESEARCH, INC., priority 2015, dated 2023).
In brackets after ≈: the same amount, converted by molar mass.

Legend:
[1] = Aqueous solubility, kinetic shake flask method; format: physicochemical; details: aqueous buffer, kinetic from dmso stock, pH=7.4 in 50 mM phosphate buffer
[2] = PK study of dose proportionality in rat after oral crystalline Form A; format: in vivo, female Sprague Dawley rats; details: oral 10, 30, 100 or 300 mg/kg, suspension in 1% Tween, 40% PEG400, 59% of 0.5% HPMC
Description: A summary of this study is illustrated in FIG. 5.

[3] = test system: Raji, human Burkitts lymphoma cells; assay: Cell-MTS cellular proliferation assay, Raji; format: cell-based; details: 168 hr incubation
Experimental: (§1) A colorimetric cellular proliferation assay (Cell-MTS assay) was performed to assess the ability of the heterocyclic derivative BRD4 inhibitors disclosed herein to effect the proliferation of established cancer cell lines.
(§2) Assay Principle: The Cell-MTS assay is a 7-day plate-based colorimetric assay that quantifies the amount of newly generated NADH in the presence or absence of test compound. The NADH level is used for the quantification of cancer cell proliferation.
(§3) Assay Method: Established cancer cell lines with a variety of driving mutations were obtained from American Type Culture Collection (ATCC) and routinely passaged according to ATCC protocols. For routine assay, these cells were seeded at densities that enabled ˜90% confluence after 7 days of culture. Raji, human Burkitts lymphoma cells, (cMYC) were seeded at 15,000 cells per 96-well. HL-60, human proleukemia cells, (NRAS, p16, p53, c-Myc amplified) were seeded at 5,000 cells per 96-well. NCI-H460, human non-small cell lung cancer cells, (KRAS, PIK3CA, STLK11, p16) were seeded at 3,000 cells per 96-well. Plated cells were incubated for 24 hr, and thereafter cells received an 11-point dilution of Compound 1 with final concentration ranges from 100 μM to 2.0 nM. […] IC50 values were calculated using the IDBS XLfit software package and include background subtracted OD490 values and normalization to DMSO controls. […]

[4] = PK study of dose proportionality in rat after oral SDD; format: in vivo, female Sprague Dawley rats; details: 25% Compound 1:HPMC SDD, oral 0.5% MC suspension, 10 mg/kg to 300 mg/kg
Experimental: (§4) The spray-dried dispersion was prepared by mixing a solution of Compound 1 in dichloromethane with hydroxypropyl methylcellulose (Methocel E5 LV) (HPMC) in a 1:3 Compound 1:polymer ratio, stirring the mixture overnight, and then spray-drying using a lab scale Buchi spray dryer.

[5] = test system: NCI-H460, human non-small cell lung cancer cells; assay: Cell-MTS cellular proliferation assay, NCI-H460; format: cell-based; details: 168 hr incubation
Experimental: as §1, §2, §3

[6] = PK study of dose proportionality in dog after oral SDD; format: in vivo, male beagle dogs; details: 25% Compound 1:HPMC SDD, oral 0.5% MC suspension, 1 mg/kg-10 mg/kg
Experimental: as §4

[7] = PK study of plasma exposure in mouse 6 hours after oral SDD preparations; format: in vivo, female CD-1 mice; details: female, CD-1, mouse
Experimental: Spray-dried dispersions (SDD) were prepared by mixing a solution of Compound 1 in dichloromethane with either polyvinylpyrrolidone (PVP K12 PF) or hydroxypropyl methylcellulose (Methocel E5 LV) in ratios of Compound 1:polymer of either 1:1 or 1:3, resulting in four unique combinations, followed by spray-drying each preparation using a lab scale Buchi spray dryer (Buchi B290 parameters: inlet T° 80° C.; outlet T° 57° C.; aspirator 100%; nozzle air 30 mm; pump speed 25%; setup: open loop).
In order to determine the plasma exposure levels of the four SDDs prepared as described above, each of preparation was administered orally to female CD-1 mice as a suspension in 0.5% MC. FIG. 6 illustrates the results of this experiment.

[8] = test system: HL-60, human proleukemia cells; assay: Cell-MTS cellular proliferation assay, HL-60; format: cell-based; details: 168 hr incubation
Experimental: as §1, §2, §3

[9] = PK study of plasma exposure in rat after oral HPMCAS SDD preparations; format: in vivo, female Sprague Dawley rats; details: female, Sprague Dawley, 10 mg/kg
Experimental: Spray-dried dispersions (SDD) were prepared by mixing a solution of Compound 1 in (90:10) acetone:water with hydroxypropylmethylcellulose acetate succinate M or H (HPMCAS-M or HPMCAS-H) in ratios of Compound 1:polymer of either 1:9 or 1:3, followed by spray-drying each preparation using a custom bench scale Lab Spray Dryer (BLD-35; process parameters: inlet T° 93-109° C.; outlet T° 42-43° C.; atomizing pressure 110 psi; feed rate 29 g/min; […] 450 g/min).
In order to determine the plasma exposure levels of the three SDDs prepared as described above, each of them was administered orally at 10 mg/kg (based on Compound 1) to female Sprague Dawley rats as a suspension in 0.5% MC for the 10% HPMCAS-M SDD or as a suspension in 0.5% Methocel A4M/0.5% HPMCAS-HF/20 mM Tris, pH 7.4 for the 25% HPMCAS-M and the 25% HPMCAS-H SDDs. FIG. 9 illustrates the results of this experiment.

BRD4(BD1) = target: T1, BRD4(BD1) (Homo sapiens, UniProt O60885); assay: In vitro enzyme inhibition assay (AlphaScreen, BRD4 / H4-tetraacetyl peptide); format: binding; details: BRD4(BD1) 2 nM, peptide 15 nM
T1 construct: In a 384-well ProxiPlate BRD4(BD1) (2 nM final) was combined with peptide; made in house
Experimental: His-tagged BRD4 was cloned, expressed, and purified to homogeneity. […] BRD4 binding and inhibition was assessed by monitoring the interaction of biotinylated H4-tetraacetyl peptide (AnaSpec, H4K5/8/12/16(Ac), biotin-labeled) with the target using the AlphaScreen technology ([…]). […] After 20 min incubation at RT, Alpha streptavidin donor beads and Nickel Chelate acceptor beads were added to a final concentration of 5 μg/mL.

Structure (SMILES)	solubility [1] [µg/mL]	exposure levels (AUC 0-24 hr) versus dose [2]	IC50 [3] [nM]	dose proportionality (AUC 0-24 hr) [4]	IC50 [5] [nM]	dose proportionality (AUC 0-24 hr) [6]	AUC(0-t) ([7]; SDD with HPMC polymer, Compound 1:polymer 1:1, suspension in 0.5% MC) [ng·h/mL]	AUC(0-t) ([7]; SDD with HPMC polymer, Compound 1:polymer 1:3, suspension in 0.5% MC) [ng·h/mL]	AUC(0-t) ([7]; SDD with PVP polymer, Compound 1:polymer 1:1, suspension in 0.5% MC) [ng·h/mL]	AUC(0-t) ([7]; SDD with PVP polymer, Compound 1:polymer 1:3, suspension in 0.5% MC) [ng·h/mL]	IC50 [8] [nM]	AUC(0-t) ([9]; SDD with HPMCAS-M polymer, Compound 1:polymer 1:9, suspension in 0.5% MC, read-out: mean AUC 0-24 hr) [ng·h/mL]	AUC(0-t) ([9]; pH 7.4, SDD with HPMCAS-H polymer, Compound 1:polymer 1:3, suspension in 0.5% Methocel A4M/0.5% HPMCAS-HF/20 mM Tris, pH 7.4, read-out: mean AUC 0-24 hr) [ng·h/mL]	AUC(0-t) ([9]; pH 7.4, SDD with HPMCAS-M polymer, Compound 1:polymer 1:3, suspension in 0.5% Methocel A4M/0.5% HPMCAS-HF/20 mM Tris, pH 7.4, read-out: mean AUC 0-24 hr) [ng·h/mL]	IC50 (BRD4(BD1)) [nM]
Cn1cc(-c2cc(S(C)(=O)=O)ccc2OCC2CC2)c2ccccc2c1=O [Compound 1 Form A, 4-[2-(cyclopropylmethoxy)-5-methylsulfonylphenyl]-2-methylisoquinolin-1-one]	2.6 to 3.7 (≈ 6.78 to 9.65 µM)	non-linear exposure levels	–	–	–	–	–	–	–	–	–	–	–	–	–
Cn1cc(-c2cc(S(C)(=O)=O)ccc2OCC2CC2)c2ccccc2c1=O [Compound 1, 4-[2-(cyclopropylmethoxy)-5-methylsulfonylphenyl]-2-methylisoquinolin-1-one]	–	–	≤ 500	approximate dose proportionality	> 5000	Approximate dose proportionality	10500	24400	7190	8870	≤ 500	28100	27500	24600	< 500
